In patent publication US20250163057A1, “DCN-1 MODULATING COMPOUNDS AND METHODS OF USE THEREOF” (Cellarity, Inc., priority 2023, published 2025):
Like-named read-outs stand apart in the source and are kept apart here.

Columns and labels:
[1] = tested on: Cullin-3 (CUL3) neddylation; test: AlphaLISA assay for Cullin-3 (CUL3) neddylation in TF 1 cells; format: cell-based; conditions: Homo sapiens, TF-1, 3 h, 3 hours treatment
Outline: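 TF 1 cells in unsupplemented IMDM treated with compound concentrations for 3 h, then lysed. CUL3 neddylation detected by AlphaLISA (biotinylated anti-NEDD8, anti-CUL3 acceptor beads overnight, streptavidin donor beads 1 h); normalized to vehicle (0%) and 1 μM DI-1548 (100%), IC50 from Hill fits.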

[2] = biological target: T1, DCN1 (DCUND1) protein PONY domain (Homo sapiens (Human), UniProt Q96GG9); test: TR-FRET assay, DCN1 binding with FAM-labeled probe
T1 sequence (Q96GG9 60-248): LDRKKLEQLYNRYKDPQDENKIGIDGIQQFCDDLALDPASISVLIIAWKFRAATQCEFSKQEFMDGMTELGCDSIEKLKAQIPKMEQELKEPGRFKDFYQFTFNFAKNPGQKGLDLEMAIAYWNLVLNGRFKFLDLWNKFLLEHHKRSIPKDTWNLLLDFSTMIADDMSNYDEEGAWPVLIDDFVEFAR
Outline: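 Biotinylated DCN1 PONY domain, labeled with streptavidin-Tb, was competed against a FAM-labeled non-covalent DCN1 inhibitor probe in buffer with TritonX and 200 mM NaCl. Conditions were 5 nM DCN1 with 20 nM FAM-probe, or 0.31 nM DCN1 with 100 nM FAM-plus 800 nM unlabeled probe. The TR-FRET ratio was read at 1, 5 and 24 h (0.1% DMSO).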

[3] = biological target: T1, DCN1 (DCUND1) protein PONY domain; test: Off-rate measurement of reversible covalent molecules (jump dilution TR-FRET with Cy5 probe); format: binding
Description: A typical covalent compound is assumed to stay bound to a protein for at least the life of that protein in the cell. In reality, there is a range of how long a covalent compounds remains bound before a reverse reaction takes place. Thus, some covalent bonds can be labeled as reversible as their reverse reaction takes place in a measurable amount of time under physiological conditions. The assay capitalizes on the range of covalent binders by using a high affinity covalent binder as a probe to displace the more reversible binders in an adaptation of the jump dilution method.
In this version of the jump dilution method, the increase in covalent probe binding over time was measured through a TR-FRET reaction between the covalent probe and the biotinylated target protein.
The recombinant form of the DCN1 (DCUND1) protein PONY domain was produced using an E. coli expression system at Viva Biotech (China). The DCN1 protein was biotinylated (EZ sulfo-NHS-LC-biotin; Thermofisher) for labeling with streptavidin terbium (Tb) cryptate in the reaction. This biotinylated protein was used in two forms of the TR-FRET assay as described below.
The off-rate measurement is executed in two steps based on the jump dilution method. […] The greatest dilution allowed within the constraints of the assay was chosen. These factors allow a competitive advantage for the covalent probe to replace the test compound when that compound releases from the target protein. The actual measure is the rate of increased TR-FRET signal as the covalent probe replaces the test compound over time. […] The resulting time dependent curve of the TR-FRET signal is fit to the following equation:
Y=Y0+(Plateau−Y0)*(1−exp(−K*x))
K is the rate constant (1/unit of time). The residence time is defined as the inverse of K, the rate constant. The half-life is calculated as ln(2)/K.

[4] = biological target: DCN2 (DCUND2) protein PONY domain (Homo sapiens (Human), UniProt Q6PH85); test: Measurement of Kinact/KI in the DCN2 TR-FRET Assay; format: binding; conditions: for Ki / kinact: time-dependent IC50 over 24 hrs
Sequence of DCN2 (DCUND2) protein PONY domain (Q6PH85 60-248): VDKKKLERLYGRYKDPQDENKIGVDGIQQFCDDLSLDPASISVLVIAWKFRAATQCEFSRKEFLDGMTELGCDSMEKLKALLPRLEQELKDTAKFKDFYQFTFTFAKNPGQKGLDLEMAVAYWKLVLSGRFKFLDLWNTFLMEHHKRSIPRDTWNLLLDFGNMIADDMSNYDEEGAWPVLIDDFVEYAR
Experimental: A TR-FRET Assay was performed to evaluate the ability of the compounds to bind DCN-2.
The time resolved—Forster's resonance energy transfer (TR-FRET) assay was designed following the protocol established in (Scott et al., Nat Chem Biol. 2017 August; 13(8): 850-857). A recombinant form of the DCN2 (DCUND2) protein PONY domain was produced using an E. coli expression system at Viva Biotech China. The DCN2 protein was biotinylated (EZ sulfo-NHS-LC-biotin; Thermofisher) for labeling with 2.5 nM streptavidin terbium (Tb) cryptate in the reaction. The probe was changed to a non-covalent DCN1 inhibitor labeled with carboxyfluorescein (FAM; Zhou et al, Nat Commun. 2017; 8: 1150). Buffer conditions were modified to enhance protein stability by replacing TritonX with 0.05% Tween20 and increasing NaCl to 200 mM. The compounds were screened against 0.31 nM DCN1 and 40 nM FAM-labeled probe in a 40 ul reaction volume. The TR-FRET ratio between Tb-DCN1 and the FAM-labeled probe was measured in a 384-well opti-plate (Perkin Elmer) using a plate reader (BMG) at after treatment with compound (final DMSO concentration of 0.1%). The ratio was normalized to the high (DCN1 and FAM-probe) and low (DCN1 and no probe) controls for a readout of % activity (=100*(x−low)/(high−low)).
The Kinact and KI measurements were taken to allow for continuous reads over 24 hrs. Plates were read every 5 min up to 1 hr, every 15 min up to 5 hr, and every hour up to […]. Kinact and KI were calculated based on the following equations (Krippendorff B F, et al. Mechanism-based inhibition: deriving K(I) and k(inact) directly from time-dependent IC(50) values. J BiomolScreen. 2009; Mons E et al. A Comprehensive Guide for Assessing Covalent Inhibition in Enzymatic Assays Illustrated with Kinetic Simulations. CurrProtoc. 2022) where the KM of the probe against DCN2 is 21.62 nM. The Kinact and KI values could be estimated from the tight curves of the IC50 values over time.

Row | SMILES | IC50 [1] [nM] | IC50 ([2]; 24 hr after treatment with compound, read-out: TR FRET IC50 24 hr) [nM] | IC50 ([2]; read-out: TR FRET IC50 1 hr, 1 hr after treatment with compound) [nM] | Category ([3]; binding mode category from off-rate assay) | residence time ([3]; inverse of rate constant K, jump dilution TR-FRET) [min] | koff ([3]; jump dilution, Cy5 covalent probe 150 nM, TR-FRET) [s⁻¹] | half-life ([3]; ln(2)/K, jump dilution TR-FRET) [min] | kinact/KI ([4]; read-out: Kinact/KI (converted)) [M⁻¹ s⁻¹] | Ki [4] [nM] | kinact ([4]; read-out: Kinact (converted)) [s⁻¹] | kinact/KI [4] [nM − 1 * min − 1] | kinact [4] [min^ − 1]
1 | CCN1C(=O)[C@@H](NC(=O)c2cccc(C(F)(F)F)c2)[C@@H](C2CC2)c2c(C(=O)N3C[C@H](NC)C[C@H]3C#N)nn(C3CCOCC3)c21 [Compound I-425, N-((4S,5S)-3-((2S,4R)-2-cyano-4-(methylamino)pyrrolidine-1-carbonyl)-4-cyclopropyl-7-ethyl-6-oxo-1-(tetrahydro-2H-pyran-4-yl)-4,5,6,7-tetrahydro-1H-pyrazolo[3,4-b]pyridin-5-yl)-3-(trifluoromethyl)benzamide] | ≤ 100 | ≤ 200 | ≤ 200 | fast reversible | 76 | 0.000219 | 52.69 | 5000 | 21.6 | 0.000115 | – | –
2 | C=C(CN1CCOCC1)C(=O)NC[C@@H](NC(=O)[C@H](Cc1nc2ccc(C(C)C)cc2s1)NC(=O)CC)C1CCCCC1 [DI-1548, reference compound] | – | – | – | – | – | – | – | – | 0.355 | – | 0.9971 | 0.3536
